Here are results for 28 molecules from US20260166039A1 (SCHRÖDINGER, INC., priority 2022, published 2026).

In one experiment the target is T1, Wee1 kinase domain (Homo sapiens, UniProt P30291).
T1 construct: Wee1 kinase domain was purchased from Carna (catalog #05-177); purchased Carna 05-177
The experiment can be described thus: Wee1 Kinase Biochemical Assay (ADP-Glo). As to conditions: 15 uM ATP. The procedure, abridged: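 Poly(Lys,Tyr 4:1) phosphorylation by the kinase domain is followed as ADP output (ADP-Glo) after 4 h at 25 °C, with ATP at 15 uM. Values are percent inhibition between vehicle and full-inhibition controls.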

Experiment [1] has as its system phosphorylation of Cdc2 Y15 (Wee1 substrate) in A427 cells. In words: Phosphorylated Cdc2 MSD Electrochemiluminescence Assay. It is filed as cell-based. As to conditions: Homo sapiens. The essentials:
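A427 cells (RPMI 1640, 10% FBS) treated 20 h after plating with 3-fold serial compound dilutions, in duplicate, 37 °C, 5% CO2; total incubation 6 h. Lysate Cdc2 pY15 read by MSD electrochemiluminescence sandwich immunoassay; % remaining signal normalised to DMSO (high) and reference Wee1 inhibitor (low) controls.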

[2] abbreviates: class symbols, 1 nM Wee1 enzyme, 4 hours at 25° C.
Setting [3] is: A-427, class symbols, read-out: A427 pCDC2 MSD IC50.

pIC50: −log10 of the molar value. Where two headings read alike, the source gives them in different places.

A word on the pIC50: it is the IC50 on a negative log10 scale, so that one unit is a factor of ten.

T1 sequence (P30291 299-569 limits assumed): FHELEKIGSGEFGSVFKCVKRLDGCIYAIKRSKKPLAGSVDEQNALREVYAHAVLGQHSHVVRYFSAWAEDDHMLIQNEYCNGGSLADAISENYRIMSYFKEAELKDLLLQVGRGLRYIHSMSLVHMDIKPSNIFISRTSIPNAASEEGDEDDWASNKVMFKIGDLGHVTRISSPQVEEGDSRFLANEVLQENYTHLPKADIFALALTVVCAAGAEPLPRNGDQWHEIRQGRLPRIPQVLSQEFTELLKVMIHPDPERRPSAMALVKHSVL

On to `CNCc1cccc(N2c3nc(Nc4ccn([C@H]5CCOC5)c(=O)c4)ncc3[C@@]3(C)COC(C)(C)C[C@@H]23)n1` (single isomer, unassigned) [Example 389], for which the negative logarithm of the IC50 (pIC50) on Wee1 kinase domain (Wee1 kinase domain, ADP-Glo) is greater than 8.00; in experiment [1] (A-427, pCDC2 MSD) it was 5.00 to 6.00.

On to `CN1CCC(n2cc(Nc3ncc4c(n3)N(c3cccc(N=S(C)(C)=O)c3)[C@@H]3CC(C)(C)OC[C@]43C)cn2)CC1` [Example 716, dimethyl((3-((4bR,8aR)-4b,7,7-trimethyl-2-((1-(1-methylpiperidin-4-yl)-1H-pyrazol-4-yl)amino)-4b,7,8,8a-tetrahydropyrano[3′,4′:4,5]pyrrolo[2,3-d]pyrimidin-9(5H)-yl)phenyl)imino)-16-sulfanone], for which the pIC50 at Wee1 kinase domain (setting [2]) is greater than 8.00; in experiment [1] (setting [3]), 5.00 to 6.00.

In the case of `CNCc1cccc(N2c3nc(Nc4ccc(C5CCOCC5)nc4)ncc3[C@@]3(C)COC(C)(C)C[C@@H]23)n1` (single isomer, unassigned) [Example 56], the negative logarithm of the IC50 (pIC50) is greater than 8.00 at Wee1 kinase domain (Wee1 kinase domain, ADP-Glo) and 6.00 to 7.00 in experiment [1] (A-427, pCDC2 MSD).

In the case of `CNCc1cccc(N2c3nc(Nc4ccc([C@@H]5CCOC5)cc4)ncc3[C@@]3(C)COC(C)(C)C[C@@H]23)n1` (single isomer, unassigned) [Example 38], the pIC50 at Wee1 kinase domain (Wee1 kinase domain, ADP-Glo) is greater than 8.00; in experiment [1] (A-427, pCDC2 MSD), greater than 7.00.

Take `Cc1cc(Nc2ncc3c(n2)N(c2cccc(N=S(C)(C)=O)n2)[C@@H]2CC(C)(C)OC[C@]32C)ccc1[C@@H]1CCN(C)C1` (single isomer, unassigned) [Example 145]: the pIC50 against Wee1 kinase domain (Wee1 kinase domain, ADP-Glo) is greater than 8.00; in experiment [1] (A-427, pCDC2 MSD), greater than 7.00.

As to `Cc1ccc(Nc2ncc3c(n2)N(c2cccc(N=S(C)(C)=O)n2)[C@@H]2CC(C)(C)OC[C@]32C)cn1` (single isomer, unassigned) [Example 491], the figures for the negative-log IC50 (pIC50) (against Wee1 kinase domain (setting [2]); in experiment [1] (setting [3])) were greater than 8.00 and 6.00 to 7.00, respectively.

Take `CN1C[C@@H]2C[C@H]1CN2c1ccc(Nc2ncc3c(n2)N(c2cccc(P(C)(C)=O)n2)[C@@H]2CC(C)(C)OC[C@]32C)cc1` [Example 777, dimethyl(6-((4bR,8aR)-4b,7,7-trimethyl-2-((4-((1S,4S)-5-methyl-2,5-diazabicyclo[2.2.1]heptan-2-yl)phenyl)amino)-4b,7,8,8a-tetrahydropyrano[3′,4′:4,5]pyrrolo[2,3-d]pyrimidin-9(5H)-yl)pyridin-2-yl)phosphine oxide]: the pIC50 at Wee1 kinase domain (setting [2]) is greater than 8.00; in experiment [1] (setting [3]), 5.00 to 6.00.

For `CN1CCC[C@@H]1c1ccc(Nc2ncc3c(n2)N(c2cccc(N=S(C)(C)=O)n2)[C@@H]2CC(C)(C)OC[C@]32C)cc1` (single isomer, unassigned) [Example 127], the pIC50 is greater than 8.00 against Wee1 kinase domain (Wee1 kinase domain, ADP-Glo) and greater than 7.00 in experiment [1] (A-427, pCDC2 MSD).

As for `CN1CC[C@@](C)(c2ccc(Nc3ncc4c(n3)N(c3cccc(N5CCOC5=O)n3)[C@@H]3CC(C)(C)OC[C@]43C)cc2)C1` [Example 670, 3-(6-((4bR,8aR)-2-((4-((S)-1,3-dimethylpyrrolidin-3-yl)phenyl)amino)-4b,7,7-trimethyl-4b,7,8,8a-tetrahydropyrano[3′,4′:4,5]pyrrolo[2,3-d]pyrimidin-9(5H)-yl)pyridin-2-yl)oxazolidin-2-one], the pIC50 at Wee1 kinase domain (setting [2]) is greater than 8.00; in experiment [1] (setting [3]), 6.00 to 7.00.

`CNCc1cccc(N2c3nc(Nc4ccc(N5CCOCC5)cc4)ncc3[C@@]3(C)COCC[C@@H]23)n1` (single isomer, unassigned) [Example 572]: the pIC50 was greater than 8.00 against Wee1 kinase domain (setting [2]) and 6.00 to 7.00 in experiment [1] (setting [3]).

As to `Cc1cc(Nc2ncc3c(n2)N(c2cccc(C(C)(C)O)n2)[C@@H]2CC(C)(C)OC[C@]32C)ccc1C1CCN(C)CC1` (single isomer, unassigned) [Example 8], the pIC50 at Wee1 kinase domain (Wee1 kinase domain, ADP-Glo) was greater than 8.00; in experiment [1] (A-427, pCDC2 MSD), 6.00 to 7.00.

For `CC1(C)C[C@H]2N(c3cccc(N4CCOC4=O)n3)c3nc(Nc4ccc(C5CNC5)cc4)ncc3[C@@]2(C)CO1` [Example 666, 3-(6-((4bR,8aR)-2-((4-(azetidin-3-yl)phenyl)amino)-4b,7,7-trimethyl-4b,7,8,8a-tetrahydropyrano[3′,4′:4,5]pyrrolo[2,3-d]pyrimidin-9(5H)-yl)pyridin-2-yl)oxazolidin-2-one], the pIC50 on Wee1 kinase domain (setting [2]) is greater than 8.00; in experiment [1] (setting [3]), 6.00 to 7.00.

For the molecule `Cc1cc(Nc2ncc3c(n2)N(c2cccc(N=S(C)(C)=O)n2)[C@@H]2CC(C)(C)OC[C@]32C)ccc1C1CCN(C)CC1` (single isomer, unassigned) [Example 104], the pIC50 on Wee1 kinase domain (Wee1 kinase domain, ADP-Glo) is greater than 8.00; in experiment [1] (A-427, pCDC2 MSD), greater than 7.00.

Regarding `CC1(C)C[C@H]2N(c3cccc(N4CCCC4=O)n3)c3nc(Nc4ccc(O[C@@H]5CCNC5)cc4)ncc3[C@@]2(C)CO1` [Example 616, 1-(6-((4bR,8aR)-4b,7,7-trimethyl-2-((4-(((R)-pyrrolidin-3-yl)oxy)phenyl)amino)-4b,7,8,8a-tetrahydropyrano[3′,4′:4,5]pyrrolo[2,3-d]pyrimidin-9(5H)-yl)pyridin-2-yl)pyrrolidin-2-one], the pIC50 against Wee1 kinase domain (setting [2]) is greater than 8.00; in experiment [1] (setting [3]), 6.00 to 7.00.

Take `CC1(C)C[C@H]2N(c3cccc(N=S(C)(C)=O)n3)c3nc(Nc4cncc(F)c4)ncc3[C@@]2(C)CO1` (single isomer, unassigned) [Example 369]: the negative-log IC50 (pIC50) is greater than 8.00 at Wee1 kinase domain (Wee1 kinase domain, ADP-Glo) and 6.00 to 7.00 in experiment [1] (A-427, pCDC2 MSD).

With `CN1CC(c2ccc(Nc3ncc4c(n3)N(c3cccc(N5CCOC5=O)n3)[C@@H]3CC(C)(C)OC[C@]43C)cc2)C1` [Example 698, 3-(6-((4bR,8aR)-4b,7,7-trimethyl-2-((4-(1-methylazetidin-3-yl)phenyl)amino)-4b,7,8,8a-tetrahydropyrano[3′,4′:4,5]pyrrolo[2,3-d]pyrimidin-9(5H)-yl)pyridin-2-yl)oxazolidin-2-one], the pIC50 on Wee1 kinase domain (setting [2]) was greater than 8.00; in experiment [1] (setting [3]) it was 6.00 to 7.00.

For `Cc1cc(Nc2ncc3c(n2)N(c2cccc(N4CCCC4=O)n2)[C@@H]2CC(C)(C)OC[C@]32C)ccc1N1C[C@@H]2C[C@H]1CN2C` [Example 652, 1-(6-((4bR,8aR)-4b,7,7-trimethyl-2-((3-methyl-4-((1S,4S)-5-methyl-2,5-diazabicyclo[2.2.1]heptan-2-yl)phenyl)amino)-4b,7,8,8a-tetrahydropyrano[3′,4′:4,5]pyrrolo[2,3-d]pyrimidin-9(5H)-yl)pyridin-2-yl)pyrrolidin-2-one], the pIC50 is greater than 8.00 on Wee1 kinase domain (setting [2]) and 6.00 to 7.00 in experiment [1] (setting [3]).

As to `CN1CC2(C1)CN(c1ccc(Nc3ncc4c(n3)N(c3cccc(P(C)(C)=O)n3)[C@@H]3CC(C)(C)OC[C@]43C)cc1)C2` (single isomer, unassigned) [Example 775], the pIC50 on Wee1 kinase domain (setting [2]) was greater than 8.00; in experiment [1] (setting [3]), 6.00 to 7.00.

For `CNCc1cccc(N2c3nc(Nc4ccc(C(C)(C)C(=O)O)cc4)ncc3[C@@]3(C)COC(C)(C)C[C@@H]23)n1` (single isomer, unassigned) [Example 458], the results for the pIC50 (against Wee1 kinase domain (setting [2]); in experiment [1] (setting [3])) were greater than 8.00 and 5.00 to 6.00, respectively.

Consider `C[C@H]1COC(=O)N1c1cccc(N2c3nc(Nc4ccc([C@@H]5CCNC5)cc4)ncc3[C@@]3(C)COC(C)(C)C[C@@H]23)n1` (single isomer, unassigned) [Example 275], for which the negative-log IC50 (pIC50) against Wee1 kinase domain (Wee1 kinase domain, ADP-Glo) was greater than 8.00; in experiment [1] (A-427, pCDC2 MSD), 6.00 to 7.00.

In the case of `CC1(C)C[C@H]2N(c3cccc(N=S(C)(C)=O)n3)c3nc(Nc4ccc(N5C[C@@H]6C[C@H]5CO6)cc4)ncc3[C@@]2(C)CO1` (single isomer, unassigned) [Example 497], the pIC50 against Wee1 kinase domain (setting [2]) was greater than 8.00; in experiment [1] (setting [3]), 6.00 to 7.00.

Consider `CN=[S@@](C)(=O)c1cccc(N2c3nc(Nc4ccc(N5CC6(CN(C)C6)C5)cc4)ncc3[C@@]3(C)COC(C)(C)C[C@@H]23)n1` [Example 771, (S)-methyl(methylimino)(6-((4bR,8aR)-4b,7,7-trimethyl-2-((4-(6-methyl-2,6-diazaspiro[3.3]heptan-2-yl)phenyl)amino)-4b,7,8,8a-tetrahydropyrano[3′,4′:4,5]pyrrolo[2,3-d]pyrimidin-9(5H)-yl)pyridin-2-yl)-16-sulfanone], for which the pIC50 at Wee1 kinase domain (setting [2]) is greater than 8.00; in experiment [1] (setting [3]), 6.00 to 7.00.

As for `CN=[S@@](C)(=O)c1cccc(N2c3nc(Nc4ccc(C5CCN(C)CC5)cc4)ncc3[C@@]3(C)COC(C)(C)C[C@@H]23)n1` (single isomer, unassigned) [Example 752], the negative-log IC50 (pIC50) on Wee1 kinase domain (setting [2]) was greater than 8.00; in experiment [1] (setting [3]), 6.00 to 7.00.

Consider `CNCc1cccc(N2c3nc(Nc4ccc(N5CCN(C)C(=O)C5)cc4)ncc3[C@@]3(C)COC(C)(C)C[C@@H]23)n1` (single isomer, unassigned) [Example 450], for which the pIC50 on Wee1 kinase domain (setting [2]) is greater than 8.00; in experiment [1] (setting [3]), 6.00 to 7.00.

Take `C[C@H]1COC(=O)N1c1cccc(N2c3nc(Nc4ccc(C5(C)COC5)cc4)ncc3[C@@]3(C)COC(C)(C)C[C@@H]23)n1` (single isomer, unassigned) [Example 303]: the pIC50 against Wee1 kinase domain (Wee1 kinase domain, ADP-Glo) was greater than 8.00; in experiment [1] (A-427, pCDC2 MSD), 6.00 to 7.00.

Turning to `CC1(C)C[C@H]2N(c3cccc(N=S(C)(C)=O)n3)c3nc(NC(=O)[C@@H]4C[C@H]4c4ccccc4)ncc3[C@@]2(C)CO1` (single isomer, unassigned) [Example 396], the pIC50 against Wee1 kinase domain (Wee1 kinase domain, ADP-Glo) is greater than 8.00; in experiment [1] (A-427, pCDC2 MSD), 6.00 to 7.00.

With `CNCc1cccc(N2c3nc(Nc4ccc(N5CCN(C)CC5)cc4)ncc3[C@@]3(C)COC(C)(C)C[C@@H]23)n1` (single isomer, unassigned) [Example 94], the pIC50 was greater than 8.00 against Wee1 kinase domain (Wee1 kinase domain, ADP-Glo) and 6.00 to 7.00 in experiment [1] (A-427, pCDC2 MSD).

For `C[C@H]1COC(=O)N1c1cccc(N2c3nc(Nc4ccc(C5CCN(C)CC5)cc4)ncc3[C@@]3(C)COC(C)(C)C[C@@H]23)n1` (single isomer, unassigned) [Example 251], the pIC50 against Wee1 kinase domain (Wee1 kinase domain, ADP-Glo) was greater than 8.00; in experiment [1] (A-427, pCDC2 MSD), 6.00 to 7.00.
